Laboratory results: the NIST ThermoML archive (doi:10.1021/je800145h)

Conditions: Liquid

CC(C)CO [2-methyl-1-propanol]
Conditions | vapor or sublimation pressure [kPa]
357.45 K | 40
364.17 K | 53.33
369.67 K | 66.66
374.35 K | 79.99
378.45 K | 93.32
379.96 K | 98.66

CC(C)O [propan-2-ol]
Conditions | vapor or sublimation pressure [kPa]
333.94 K | 40
340.18 K | 53.33
345.25 K | 66.66
349.55 K | 79.99
353.3 K | 93.32
354.67 K | 98.66

CO [methanol]
Conditions | vapor or sublimation pressure [kPa]
315.75 K | 40
322.15 K | 53.33
327.34 K | 66.66
331.73 K | 79.99
335.57 K | 93.32
336.98 K | 98.66

CCCO [propan-1-ol]
Conditions | vapor or sublimation pressure [kPa]
347.55 K | 40
354.18 K | 53.33
359.56 K | 66.66
364.11 K | 79.99
368.08 K | 93.32
369.55 K | 98.66

CCC(C)O (stereo unspecified) [butan-2-ol]
Conditions | vapor or sublimation pressure [kPa]
349.73 K | 40
356.36 K | 53.33
361.77 K | 66.66
366.36 K | 79.99
370.38 K | 93.32
371.86 K | 98.66

CC(C)(C)O [2-methylpropan-2-ol]
Conditions | vapor or sublimation pressure [kPa]
333.9 K | 40
340.13 K | 53.33
345.21 K | 66.66
349.53 K | 79.99
353.32 K | 93.32
354.61 K | 98.66

CCCCO [butan-1-ol]
Conditions | vapor or sublimation pressure [kPa]
366.76 K | 40
373.74 K | 53.33
379.43 K | 66.66
384.26 K | 79.99
388.49 K | 93.32
390.04 K | 98.66

C1CCOCC1 [tetrahydropyran]
Conditions | mass density [kg/m3]
298.15 K, 101.33 kPa, Vibrating tube method | 879

Conditions | vapor or sublimation pressure [kPa]
332.98 K | 40
341.09 K | 53.33
347.72 K | 66.66
353.38 K | 79.99
358.37 K | 93.32
360.22 K | 98.66
361.23 K | 101.32

CCO [ethanol]
Conditions | vapor or sublimation pressure [kPa]
329.62 K | 40
335.99 K | 53.33
341.2 K | 66.66
345.6 K | 79.99
349.42 K | 93.32
350.82 K | 98.66
